Data: US20250276008A1, “USE OF LITHIUM-CONTAINING COMPOUNDS IN TREATMENT OF TUMORS” (Institute of Basic Medical Sciences Chinese Academy of …, priority 2023, published 2025)

What was measured:
MC38 colon cancer [1] = conditions: MC38 tumor-bearing mouse model
Excerpt: (§1) The present inventors further established MC38 colon cancer and 4T1 breast cancer tumor-bearing mouse models.

4T1 breast cancer [2] = conditions: 4T1 tumor-bearing mouse model
Excerpt: as §1

[3] = patients with bipolar disorder; J Clin Psychopharmacol. 2017; cited from earlier work
CD8^+ T cells [4] = assay: Cytosolic Ca2+ / lysosomal Ca2+ release in CD8+ T cells; type: cell-based, mouse
Excerpt: Next, we investigated the molecular mechanism by which LC activated TFEB in CD8^+ T cells. It has been reported (Nat Cell Biol. 2015 March;17(3):288-99) that in addition to being able to degrade exogenous or endogenous biomacromolecules, lysosomes, like endoplasmic reticulum and mitochondria, are also storage sites for Ca^2+ and can initiate the transduction of calcium-related downstream signals.
(§2) In order to better track the flow of H^+, ^2D (deuterium)-acetic acid (DAC) or ^2D-sulfuric acid (D2SO4) was added to the culture medium of CD8^+ T cells. […] The K-loop of V-ATPase is located in the hydrophobic lipid bilayer and is essential for the pumping of cytosolic H^+ into the lysosomal lumen. Li^+ has been reported to bind to the K-loop of V-ATPase in Enterococcus hirde and induce deprotonation of the Glul39 residue (J. Am. Chem. Soc. 2011.133. 2860-2863).

MC38 colon cancer [5] = system: MC38 colon cancer
Method: (§3) Model establishment: Cultured mouse melanoma B16 cells were resuspended in PBS buffer and inoculated subcutaneously at 1×10^5 cells/mouse into the right back of the mouse, with an injection volume of 50 μL. The needle of a 1 ml syringe was inserted from the right thigh of the mouse, penetrating under the skin to the back, to inject 50 μL of tumor cell suspension subcutaneously to the mouse to form a translucent lump of skin. Care should be taken not to puncture the skin of the mouse. The needle was quickly withdrawn after the injection, so as to avoid any leaking of tumor cells when withdrawing the needle, which would result in tumorigenesis of multiple subcutaneous tumors. Tumor cells were inoculated as soon as possible to maintain cell viability.
(§4) The present inventor further established MC38 colon cancer and 4T1 breast cancer tumor-bearing mouse models.

4T1 breast cancer [6] = system: 4T1 breast cancer
Method: as §3, §4

MCT1 = assay: Localization of MCT1 to mitochondria (Western blot of isolated T cell mitochondria); type: cell-based, mouse; conditions: Western blot of isolated T cell mitochondria
Excerpt: The inventor further explored the molecular mechanism by which LC led to the shunting of lactic acid to mitochondria. Entry of lactic acid into mitochondria requires the localization of MCT1 to the inner mitochondrial membrane IMM (Redox Biol. 2020 August;35:101454). […] MCT1 is generally recognized as a secreted protein with an endoplasmic reticulum-targeting sequence that enters the endoplasmic reticulum and localizes to the plasma membrane. We hypothesized that LC could induce MCT1 variants with mitochondrial targeting sequences (MTSs). However, no MCT1 variant was found in LC-treated T cells by sequencing analysis, and only one transcript of MCT1 was found after alignment analysis on NCBI. A MTS was found at the N-terminus of MCT-1protein by protein sequence analysis, which was present downstream of the endoplasmic reticulum targeting sequence, forming a double-peak chimeric sequence. This double-peak sequence may direct MCT-1 to target the endoplasmic reticulum or mitochondria, and may be regulated by serine/threonine phosphorylation of PKA or PKC (Avadhani, N. G. 2011. FEBS J 278, 4218-4229).

PKCθ = system: PKCθ
Excerpt: PKCθ is a new member of the PKC family, which is activated by DAG and is widely expressed in T lymphocytes. […] This enzyme has PLC activity and catalyzes the production of DAG from lysosomal phospholipids.

[7] = during administration of lithium carbonate 75 mg/kg by gavage
Method: (§5) The proportion of tumor-infiltrating human CD8^+ T cells was analyzed on Day 18.

CD8^+ T cells [8] = system: CD8^+ T cells
mouse melanoma B16 cells = conditions: 75 mg/kg by gavage
Method: Lithium carbonate is an inorganic compound with the chemical formula Li2CO3 and a molecular weight of 73.89. Lithium carbonate was prepared as follows: • 1) 1.000 g of lithium carbonate (Sigma, WXBC5202V) was weighed and placed in a beaker containing 50 mL of double-distilled water, and the volume was brought to 100 mL with double-distilled water. • 2) The mixture was mixed well in an ice water bath for 2 hours to fully dissolve the lithium carbonate. • 3) The solution was aliquoted into 50 mL centrifuge tubes and stored at 4° C.
as §3

lysosomal V-ATPase = assay: Lysosomal pH, Atp6v0c, H+ (deuterium) flow and Li+ accumulation in CD8+ T cells; type: cell-based, mouse
Method: as §2

CD8^+ T cells [9] = system: CD8^+ T cells; remark: listed apart in the source
Excerpt: The lactic acid that enters the mitochondria is further converted into pyruvic acid with the participation of lactate dehydrogenase to enter the TCA cycle for oxidative metabolism. LDHa and LDHb are two major lactate dehydrogenase genes that encode LDHa (also known as M subunit) and LDHb (H subunit). The five LDH isozymes from LDH1 to LDH5 consist of M and H subunits, and are 4H, 3H1M, 2H2M, 1H3M and 4M, respectively.
Furthermore, this study analyzed the molecular mechanism bu which LC promotes the localization and expression of LDHb in mitochondria. […] TFEB is a major regulator of lysosomal functions. […] In addition, Tfeb^fl/fl Lck^cre mice were constructed in this study, and CD8^+ T cells were isolated from the spleen of mice to repeat the above experiments.

OVA-B16 melanoma cells = system: OVA-B16 melanoma cells
Method: In order to further verify the anti-tumor immune response specific for CD8^+ T cells induced by LC, on the basis of the established tumor-bearing mice above (Example 7), 1×10^6 CD45.1 OT-1 T tumor-specific CD8^+ T cells were sorted and adoptively transferred through the tail vein to wild-type C57 mice 24 hours before the subcutaneous tumor inoculation. After 24 hours, 1×10^5 OVA-B16 melanoma cells were subcutaneously inoculated into the right back of the mice.

human A375 tumor cells = conditions: humanized NSG mice
Method: Model establishment: NOD.Cg-PrkdcIl2rg<tm1Wjl>SzJ (NSG) mice were irradiated with X-ray irradiation (2 Gy). 10^7 PBMCs from healthy volunteers were adopted into NSG mice through the tail vein within 24 hours. After 24 hours, human A375 tumor cells were digested and counted, 4×10^5 of which were inoculated subcutaneously into the right back of NSG mice, and tumorigenesis generally occurred in about seven days.
as §5

O=C([O-])[O-].[Li+].[Li+] [LC, lithium carbonate]
therapeutic effect of an anti-PD-1 antibody (tumor size, survival rate) (MC38 colon cancer [1]): enhance | therapeutic effect of an anti-PD-1 antibody (tumor size, survival rate) (4T1 breast cancer [2]): enhance | lactic acid levels in the cerebrospinal fluid [3]: significantly down-regulate | expression of Mcoln2 (CD8^+ T cells [4]): increased | cytosolic Ca^2+ concentrations (CD8^+ T cells [4]; results not shown): increased | expression of the effectors IFN-γ and CD107a (MC38 colon cancer [5]; MC38): increase | survival of mice (MC38 colon cancer [5]; MC38): prolong | number of tumor-infiltrating CD8^+ T cells (MC38 colon cancer [5]; MC38, treated as B16 model): increase | growth of MC38 colon cancer (MC38 colon cancer [5]; mouse, in vivo): effectively inhibit | expression of the effectors IFN-γ and CD107a (4T1 breast cancer [6]; 4T1): increase | survival of mice (4T1 breast cancer [6]; 4T1): prolong | number of tumor-infiltrating CD8^+ T cells (4T1 breast cancer [6]; 4T1, treated as B16 model): increase | growth of 4T1 breast cancer (4T1 breast cancer [6]; mouse, in vivo): effectively inhibit | expression / localization of MCT1 in mitochondria (MCT1): significantly increased | DAG levels in CD8^+ T cells (PKCθ): increased | expression of acid sphingomyelinase (ASM) in lysosomes (PKCθ): increased | localization of PKCθ to lysosomes (PKCθ): could induce | PKCθ activation (PKCθ; ASM expression interfered with shASM): could not induce | blood lithium concentration of mice (monitored and maintained) [7]: 1 mM | level of extracellular lactic acid (CD8^+ T cells [8]): reduced | uptake of exogenous lactic acid by CD8^+ T cells (CD8^+ T cells [8]): did not affect | lactic acid in mitochondria (CD8^+ T cells [8]; 2D-lactic acid tracing, 2 hours after treating with LC): highly accumulated | elevation in lactic acid levels in activated CD8^+ T cells caused by exogenous lactic acid (CD8^+ T cells [8]; 13C-lactic acid tracing): counteracted | mitochondrial m+3 lactic acid, nuclear m+3 lactic acid and lactyl-CoA (CD8^+ T cells [8]; 13C-lactic acid tracing, after 24 hours): almost undetectable | oxidation products of lactic acid (m+2 citric acid, m+4 malic acid) (CD8^+ T cells [8]; after 24 hours): more oxidation products of lactic acid were detected | levels of intracellular lactic acid and histone Kla (CD8^+ T cells [8]; after 24 hours, versus control group): significantly lower | growth of B16 tumors (mouse melanoma B16 cells; 5 doses from Day 7): effectively inhibit | survival of mice (mouse melanoma B16 cells; B16): prolong | number of tumor-infiltrating CD8^+ T cells (mouse melanoma B16 cells; B16, 5 doses from Day 7, Day 18): increase | expression of the effectors IFN-γ and CD107a (mouse melanoma B16 cells; B16, Day 18): increase | expression of lysosome-related gene Atp6v0c (lysosomal V-ATPase): significantly decreased | lactylation of the Atp6v0c gene (ChIP-seq) (lysosomal V-ATPase): disappeared | entry of deuterium ions into the lysosomal lumen (lysosomal V-ATPase; 2D-acetic acid or 2D-sulfuric acid added to culture medium): significantly inhibited | lysosomal pH (lysosomal V-ATPase; LA-treated cells, increased from 4.4 within 30 minutes): 5.9 | expression of LDHa (CD8^+ T cells [9]): up-regulated | expression of LDHb (CD8^+ T cells [9]): up-regulated | expression and nuclear localization of TFEB (CD8^+ T cells [9]; results not shown): significantly up-regulated | tumor growth in mice (OVA-B16 melanoma cells; OVA-B16): inhibit | expression of the effectors IFN-γ and CD107a (OVA-B16 melanoma cells; OVA-B16, Day 18): increase | number of tumor-infiltrating CD8^+ T cells (OVA-B16 melanoma cells; OVA-B16, OT-1 adoptive transfer model, LC 75 mg/kg gavage, Day 18): increase | efficacy of T cell adoptive therapy (OVA-B16 melanoma cells; OVA-B16 melanoma tumor-bearing mice): enhances | tumor growth in mice (human A375 tumor cells): inhibited | infiltration of human CD8^+ T cells (human A375 tumor cells; LC 75 mg/kg gavage, Day 18): significantly increased
